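Assay format: 96-well plates, 48-hour exposure. GI50 marks 50% less growth. Definition used: TGI = concentration required for complete inhibition of growth.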
What was measured:
Test in all cases: growth of human tumour cells (NCI), 48 h
A549 NSCLC = tested on: A549 NSCLC
HL-60(TB) leukemia = tested on: HL-60(TB) leukemia
HOP-62 NSCLC = tested on: HOP-62 NSCLC
OVCAR-3 ovarian = tested on: OVCAR-3 ovarian
SF-268 CNS = tested on: SF-268 CNS
SN12C renal = tested on: SN12C renal
SR leukemia = tested on: SR leukemia
UACC-62 melanoma = tested on: UACC-62 melanoma
BT-549 breast = tested on: BT-549 breast
NCI/ADR-RES ovarian = tested on: NCI/ADR-RES ovarian

Row | SMILES | TGI (A549 NSCLC) [µM] | TGI (HL-60(TB) leukemia) [µM] | TGI (HOP-62 NSCLC) [µM] | TGI (OVCAR-3 ovarian) [µM] | TGI (SF-268 CNS) [µM] | TGI (SN12C renal) [µM] | TGI (SR leukemia) [µM] | TGI (UACC-62 melanoma) [µM] | GI50 (A549 NSCLC) [µM] | GI50 (BT-549 breast) [µM] | TGI (BT-549 breast) [µM] | GI50 (HOP-62 NSCLC) [µM] | GI50 (NCI/ADR-RES ovarian) [µM] | TGI (NCI/ADR-RES ovarian) [µM] | GI50 (OVCAR-3 ovarian) [µM] | GI50 (SF-268 CNS) [µM] | GI50 (SN12C renal) [µM] | GI50 (SR leukemia) [µM] | GI50 (UACC-62 melanoma) [µM] | GI50 (HL-60(TB) leukemia) [µM]
1 | CC(C)(C)NNC(=O)/C(=C/c1ccc([N+](=O)[O-])cc1)NC(=O)c1ccccc1 | > 100 | > 100 | > 100 | > 100 | > 100 | > 100 | 46.4 | > 100 | – | – | – | – | – | – | – | – | – | – | – | –
2 | CN(C)c1ccc2c(=O)c3ccccc3oc2n1 | > 100 | > 100 | > 100 | > 100 | > 100 | > 100 | – | > 100 | – | – | – | – | – | – | – | – | – | – | – | –
3 | COc1ccc(C2CC(=O)c3c(O)cc(O)cc3O2)cc1O (stereo not drawn) | > 100 | > 100 | > 100 | > 100 | > 100 | > 100 | – | > 100 | – | – | – | – | – | – | – | – | – | – | – | –
4 | Cc1ccccc1NC(=O)C(=O)C(C#N)c1ccc(Cl)cc1 (stereo not drawn) | > 100 | > 100 | > 100 | > 100 | > 100 | > 100 | – | > 100 | – | – | – | – | – | – | – | – | – | – | – | –
5 | COc1ccc(-c2cc(-c3cc(Cl)ccc3Cl)nc3n[nH]c(N)c23)cc1 | > 100 | – | 84.6 | 61.9 | 24.5 | > 100 | 52.5 | > 100 | 28.8 | 38.1 | > 100 | 14.7 | 18 | > 100 | 8.82 | 4.32 | 32.7 | 10.1 | 41.9 | –
6 | N#Cc1ccccc1NC(=O)/C(=N\N)C(C(=O)c1ccncc1)C1OC(=O)c2ccccc21 (stereo not drawn) | > 100 | > 100 | > 100 | > 100 | > 100 | > 100 | > 100 | > 100 | – | – | – | – | – | – | – | – | – | – | – | –
7 | COc1ccc(OC)c(/C=N/NC(=O)Cc2csc3nc(-c4ccc(Br)cc4)cn23)c1 | 38.7 | – | 30.3 | 59 | > 100 | 49.4 | – | 27.7 | 11.6 | 12.9 | 33.6 | 13.2 | 12.8 | 35.4 | 15.9 | > 100 | 20.7 | – | 12.1 | –
8 | FC(F)(F)c1nc(N2CCCC2)ncc1-c1nnnn1-c1ccc(Cl)cc1 | > 100 | – | – | 83.4 | > 100 | > 100 | 6.24 | > 100 | 13.4 | 31 | > 100 | – | 23 | 62.2 | 18.9 | 23.7 | 26.3 | 2.53 | 7.49 | –
9 | Cc1ccc(S(=O)(=O)c2c(N)c3nc4ccccc4n3c3nc4ccccc4nc23)cc1 | > 100 | – | > 100 | > 100 | > 100 | > 100 | > 100 | > 100 | – | – | – | – | – | – | – | – | – | – | – | –
10 | CN(Cc1cnc2nc(N)nc(N)c2n1)c1ccc(C(=O)NC(CCC(=O)O)C(=O)O)cc1C(F)(F)F (stereo not drawn) | > 100 | > 100 | > 100 | > 100 | > 100 | – | 1.24 | – | – | – | – | – | – | > 100 | – | – | – | – | – | –
11 | N=C(N)c1ccc(OCc2cccc(COc3ccc(C(=N)N)cc3)c2)cc1 | > 100 | – | – | – | 18.5 | 13.1 | – | 7.99 | 19.3 | 3.41 | 9.37 | – | > 100 | > 100 | – | 5.53 | 2.68 | – | 2.17 | –
12 | O=C1[C@@H]2C(c3ccccc3Br)=NO[C@@H]2C(=O)N1c1ccc(Cc2ccc(N3C(=O)[C@H]4C(c5ccccc5Br)=NO[C@H]4C3=O)cc2)cc1 | > 100 | > 100 | > 100 | > 100 | > 100 | > 100 | – | > 100 | – | – | – | – | – | – | – | – | – | – | – | –
13 | C[N+](C)(C)CC1CCCC/C1=N\OC(=O)c1ccccc1 (stereo not drawn) | > 100 | – | > 100 | > 100 | > 100 | > 100 | > 100 | > 100 | – | – | – | – | – | – | – | – | – | – | – | –
14 | CC(NS(=O)(=O)c1ccc([N+](=O)[O-])cc1)C(=O)O (stereo not drawn) | > 100 | > 100 | – | > 100 | > 100 | > 100 | – | > 100 | – | – | – | – | – | – | – | – | – | – | – | –
15 | Nc1ccc2c(c1)C(=O)C(=O)c1c-2nc2ccccn12 | 3.54 | 5.46 | – | 3.07 | – | 2.48 | – | 0.782 | 1.62 | 1.49 | 2.82 | – | 1.85 | 5.98 | 1.26 | – | 1.08 | – | 0.266 | 1.96
16 | C/C(CN1C(=O)c2ccccc2C1=O)=N\NS(=O)(=O)c1ccc(C)cc1 | > 100 | > 100 | > 100 | > 100 | – | > 100 | > 100 | > 100 | – | – | – | – | – | – | – | – | – | – | – | –
17 | CN1N=CSC12C(=O)N(c1ccc(Cl)cc1)C(=O)N2c1ccc(Cl)cc1 (stereo not drawn) | > 100 | 5.09 | 15.5 | 4.54 | > 100 | > 100 | > 100 | 29.1 | – | – | – | – | – | – | – | – | – | – | – | –
18 | CCCCCCCCCCCCNC(C)=O | > 100 | – | 28.9 | 40.1 | 29.5 | 37 | – | 30.2 | – | – | 30.8 | – | – | 33.3 | – | – | – | – | – | –
19 | COc1cc2c(cc1O)CC[C@@H]1[C@@H]2CC[C@]2(C)[C@@H](NCCN(C)C)CC[C@@H]12 | 0.827 | 0.675 | 0.717 | 0.475 | 0.753 | 1.48 | 0.437 | 0.274 | 0.3 | 0.334 | 0.858 | 0.194 | – | – | 0.123 | 0.267 | 0.38 | 0.0989 | 0.0994 | 0.173
20 | CCOC(=O)Nc1cc2nnc(-c3ccccc3)nc2c(N)n1 | 35.1 | 37.5 | 37.6 | 48.8 | > 100 | > 100 | 72.2 | > 100 | – | – | – | – | – | – | – | – | – | – | – | –
21 | COc1cc(/C=C/c2ccncc2)cc(OC)c1OC | > 100 | 97.8 | > 100 | > 100 | > 100 | > 100 | – | > 100 | – | – | – | – | – | – | – | – | – | – | – | –
